Data as given in patent US20220324835A1 (Nurix Therapeutics, Inc., priority 2018, published 2022).

Assays:
[1] = system: T-cell; assay: IL-2 secretion from T-cells co-stimulated with anti-CD3 and anti-CD28 antibody (Biological Example 2); type: cell-based, human; conditions: Homo sapiens, T-cell, fold change over baseline, primary human total T-cells, read-out: IL-2 secretion Anti-CD3/Anti-CD28 stimulation; for fold induction at 0.3 µM: 0.3 μM Cbl-b inhibitor; for fold induction at 1 µM: 1 μM Cbl-b inhibitor; for fold induction at 4 µM: 4 μM Cbl-b inhibitor
Procedure, shortened: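 Values are fold-change over baseline: readings (IL-2 release, CD25 staining) from inhibitor-treated T-cells divided against untreated cells […]. No detailed procedure stated.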

[2] = target: Cbl-b (residues 36-427) (Homo sapiens, UniProt Q13191); assay: Cbl-b binding assay (SPR, Biacore T200); conditions: 20° C., 1:1 binding model
Chain of Cbl-b (residues 36-427) (Q13191 36-427): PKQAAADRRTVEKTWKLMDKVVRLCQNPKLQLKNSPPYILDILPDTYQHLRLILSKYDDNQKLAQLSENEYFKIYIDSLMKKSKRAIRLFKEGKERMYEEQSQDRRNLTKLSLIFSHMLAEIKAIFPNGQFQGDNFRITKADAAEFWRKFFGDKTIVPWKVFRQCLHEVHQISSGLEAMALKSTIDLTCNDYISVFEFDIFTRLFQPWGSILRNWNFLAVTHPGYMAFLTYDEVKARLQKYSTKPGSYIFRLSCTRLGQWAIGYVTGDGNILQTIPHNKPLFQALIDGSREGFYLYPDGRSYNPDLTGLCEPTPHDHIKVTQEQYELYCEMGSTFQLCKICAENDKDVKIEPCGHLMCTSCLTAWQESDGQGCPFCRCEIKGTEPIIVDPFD
Procedure, shortened: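 NeutrAvidin capture chip, 20° C; 50 s injections at 50 μl/min, 90-180 s dissociation; 0.3 M NaCl regeneration. Asterisked column: 50 mM NaCl buffer and 30 nM Src kinase in place of 100 mM NaCl and 60 nM Src kinase. 1:1 fit.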

Structure (SMILES)	fold induction at 0.3 µM [1]	fold induction at 1 µM [1]	fold induction at 4 µM [1]	Kd [2] [nM]
C[C@H](Cc1nncn1C)c1cccc(NC(=O)c2ccnc(C(F)(F)F)n2)c1 [Compound 187, (R)-N-(3-(1-(4-methyl-4H-1,2,4-triazol-3-yl)propan-2-yl)phenyl)-2-(trifluoromethyl)pyrimidine-4-carboxamide]	1.01 to 2.5	2.51 to 5	> 7.5	100 to 300
C[C@H](Cc1nncn1C)c1cccc(NC(=O)c2cccc(C(F)(F)CO)n2)c1 [Compound 188, (R)-6-(1,1-difluoro-2-hydroxyethyl)-N-(3-(1-(4-methyl-4H-1,2,4-triazol-3-yl)propan-2-yl)phenyl)picolinamide]	< 1	< 1	< 1	301 to 1000
C[C@H](Cc1nncn1C)c1cccc(NC(=O)c2cncc(C(F)(F)F)n2)c1 [Compound 189, (R)-N-(3-(1-(4-methyl-4H-1,2,4-triazol-3-yl)propan-2-yl)phenyl)-6-(trifluoromethyl)pyrazine-2-carboxamide]	1.01 to 2.5	2.51 to 5	5 to 7.5	301 to 1000
C[C@H](Cc1nncn1C)c1cccc(NC(=O)c2cc(C3(O)COC3)cc(C(F)(F)F)n2)c1 [Compound 190, (R)-4-(3-hydroxyoxetan-3-yl)-N-(3-(1-(4-methyl-4H-1,2,4-triazol-3-yl)propan-2-yl)phenyl)-6-(trifluoromethyl)picolinamide]	< 1	1.01 to 2.5	5 to 7.5	100 to 300
C[C@H](Cc1nncn1C)c1cccc(NC(=O)c2cc(S(C)(=O)=O)cc(C3CC3)n2)c1 [Compound 198, 6-cyclopropyl-N-[3-[(1R)-1-methyl-2-(4-methyl-1,2,4-triazol-3-yl)ethyl]phenyl]-4-methylsulfonyl-pyridine-2-carboxamide]	1.01 to 2.5	1.01 to 2.5	1.01 to 2.5	100 to 300
C[C@H](Cc1nncn1C)c1cccc(NC(=O)c2cc(S(N)(=O)=O)cc(C(F)(F)F)n2)c1 [Compound 200, (R)-N-(3-(1-(4-methyl-4H-1,2,4-triazol-3-yl)propan-2-yl)phenyl)-4-sulfamoyl-6-(trifluoromethyl)picolinamide]	< 1	< 1	1.01 to 2.5	301 to 1000
CNS(=O)(=O)c1cc(C(=O)Nc2cccc([C@H](C)Cc3nncn3C)c2)nc(C(F)(F)F)c1 [Compound 201, (R)-N-(3-(1-(4-methyl-4H-1,2,4-triazol-3-yl)propan-2-yl)phenyl)-4-(N-methylsulfamoyl)-6-(trifluoromethyl)picolinamide]	1.01 to 2.5	1.01 to 2.5	< 1	301 to 1000
C[C@H](Cc1nncn1C)c1cccc(NC(=O)c2cc(O[C@H]3CC[C@@H](O)C3)ccn2)c1 [Compound 206, 4-((1S,3R)-3-hydroxycyclopentyloxy)-N-(3-((R)-1-(4-methyl-4H-1,2,4-triazol-3-yl)propan-2-yl)phenyl)picolinamide]	1.01 to 2.5	1.01 to 2.5	2.51 to 5	301 to 1000
Cc1ccc(C(=O)Nc2cccc([C@H](C)Cc3nnc[nH]3)c2)nc1C1CC1 [Compound 212, (R)-N-(3-(1-(4H-1,2,4-triazol-3-yl)propan-2-yl)phenyl)-6-cyclopropyl-5-methylpicolinamide]	1.01 to 2.5	1.01 to 2.5	1.01 to 2.5	1000 to 3000
Cc1conc1C[C@@H](C)c1cccc(NC(=O)c2ccnc(C(F)(F)F)n2)c1 [Compound 213a, (R)-N-(3-(1-(4-methylisoxazol-3-yl)propan-2-yl)phenyl)-2-(trifluoromethyl)pyrimidine-4-carboxamide]	1.01 to 2.5	1.01 to 2.5	2.51 to 5	100 to 300
C[C@H](Cc1nncn1C)c1cccc(NC(=O)c2cc(C(=O)N3CC[C@](C)(O)C3)ccn2)c1 [Compound 222, 4-((S)-3-hydroxy-3-methylpyrrolidine-1-carbonyl)-N-(3-((R)-1-(4-methyl-4H-1,2,4-triazol-3-yl)propan-2-yl)phenyl)picolinamide]	< 1	< 1	< 1	1000 to 3000
C[C@H](Cc1nncn1C)c1cccc(NC(=O)c2cc(C(=O)N3C[C@@H](O)C[C@H]3C)ccn2)c1 [Compound 224, 4-((2R,4S)-4-hydroxy-2-methylpyrrolidine-1-carbonyl)-N-(3-((R)-1-(4-methyl-4H-1,2,4-triazol-3-yl)propan-2-yl)phenyl)picolinamide]	< 1	< 1	< 1	301 to 1000
C[C@H](Cc1nncn1C)c1cccc(NC(=O)c2cc(C(=O)N3C[C@@H](O)[C@H](F)C3)ccn2)c1 [Compound 240, 4-((3R,4R)-3-fluoro-4-hydroxypyrrolidine-1-carbonyl)-N-(3-((K)-1-(4-methyl-4H-1,2,4-triazol-3-yl)propan-2-yl)phenyl)picolinamide]	< 1	1.01 to 2.5	2.51 to 5	100 to 300
C[C@H](Cc1nncn1C)c1cccc(NC(=O)c2cc(C(=O)N3CC(O)C(F)(F)C3)ccn2)c1 (stereo partly drawn) [Compound 243, 4-(3,3-difluoro-4-hydroxypyrrolidine-1-carbonyl)-N-[3-[(2R)-1-(4-methyl-4H-1,2,4-triazol-3-yl)propan-2-yl]phenyl]pyridine-2-carboxamide]	< 1	< 1	2.51 to 5	> 10000
CCn1cnnc1C[C@@H](C)c1cccc(NC(=O)c2cc(C(=O)N3C[C@@H](O)C[C@H]3C)ccn2)c1 [Compound 251, N-(3-((R)-1-(4-ethyl-4H-1,2,4-triazol-3-yl)propan-2-yl)phenyl)-4-((2R,4S)-4-hydroxy-2-methylpyrrolidine-1-carbonyl)picolinamide]	< 1	< 1	1.01 to 2.5	1000 to 3000
C[C@H](Cc1nncn1C)c1cccc(N2Cc3c(Br)cccc3C2=O)c1 [Compound 256, (R)-4-bromo-2-(3-(1-(4-methyl-4H-1,2,4-triazol-3-yl)propan-2-yl)phenyl)isoindolin-1-one]	2.51 to 5	5 to 7.5	> 7.5	100 to 300
C[C@H](Cc1nncn1C)c1cccc(N2Cc3c(ccnc3C3CC3)C2=O)c1 [Compound 257, 4-cyclopropyl-2-[3-[(1R)-1-methyl-2-(4-methyl-1,2,4-triazol-3-yl)ethyl]phenyl]-3H-pyrrolo[3,4-c]pyridin-1-one]	1.01 to 2.5	1.01 to 2.5	1.01 to 2.5	301 to 1000
C[C@H](Cc1nncn1C)c1cccc(N2Cc3c(ccnc3C3CCC3)C2=O)c1 [Compound 258, (R)-4-cyclobutyl-2-(3-(1-(4-methyl-4H-1,2,4-triazol-3-yl)propan-2-yl)phenyl)-2,3-dihydropyrrolo[3,4-c]pyridin-1-one]	1.01 to 2.5	2.51 to 5	5 to 7.5	3000 to 10000
